Laboratory results: ChEMBL document CHEMBL1150852, “Coumarins isolated from Angelica gigas inhibit acetylcholinesterase: structure-activity relationships” (J Nat Prod, 2001)

Target: Acetylcholinesterase (Homo sapiens, UniProt P22303)
Test: Inhibition of AChE by spectrophotometry

Sequence of Acetylcholinesterase (P22303 whole entry): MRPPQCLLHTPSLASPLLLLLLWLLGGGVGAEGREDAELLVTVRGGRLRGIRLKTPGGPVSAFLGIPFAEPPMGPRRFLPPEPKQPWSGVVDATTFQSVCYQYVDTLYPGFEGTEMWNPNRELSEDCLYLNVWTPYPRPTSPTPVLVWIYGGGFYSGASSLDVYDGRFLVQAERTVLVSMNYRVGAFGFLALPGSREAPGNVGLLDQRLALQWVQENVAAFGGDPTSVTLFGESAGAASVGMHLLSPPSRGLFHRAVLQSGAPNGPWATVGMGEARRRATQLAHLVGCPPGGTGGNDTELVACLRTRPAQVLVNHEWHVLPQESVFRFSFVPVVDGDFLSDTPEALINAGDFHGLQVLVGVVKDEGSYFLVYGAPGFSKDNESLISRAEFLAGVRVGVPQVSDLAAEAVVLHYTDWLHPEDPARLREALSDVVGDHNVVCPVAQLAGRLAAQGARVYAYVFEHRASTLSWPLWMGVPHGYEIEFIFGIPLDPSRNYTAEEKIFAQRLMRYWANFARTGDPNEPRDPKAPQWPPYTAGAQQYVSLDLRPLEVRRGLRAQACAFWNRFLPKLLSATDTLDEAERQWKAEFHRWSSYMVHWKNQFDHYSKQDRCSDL

Q: For `C=C(C)[C@H](O)Cc1cc2ccc(=O)oc2cc1O`, which IC50 is on record?
A: The IC50 was 130 µM.

Q: How did the IC50 turn out when `CC1(C)C=Cc2cc3ccc(=O)oc3cc2O1` [XANTHYLETIN] was run?
A: The IC50 was 150 µM.

Q: How did the IC50 turn out when `CC(C)(O)C(=O)Cc1cc2ccc(=O)oc2cc1O` [PEUCEDANONE] was run?
A: The IC50 was 180 µM.

Q: For `CC(C)=CCc1cc2ccc(=O)oc2cc1O` [DEMETHYLSUBEROSIN], which IC50 is on record?
A: The IC50 was 2400 µM.

Q: `COc1cc(OCC=C(C)C)c2ccc(=O)oc2c1` was tested. Which IC50 did it give?
A: The IC50 was 240 µM.

Q: With `CC(C)(O[C@@H]1O[C@H](CO)[C@@H](O)[C@H](O)[C@H]1O)[C@H]1Cc2cc3ccc(=O)oc3cc2O1` [NODAKENIN] as the molecule, how does the IC50 read?
A: The IC50 was 68 µM.

Q: How did the IC50 turn out when `CC(C)=CCOc1c2ccoc2cc2oc(=O)ccc12` [ISOIMPERATORIN] was run?
A: The IC50 was 69 µM.

Q: For `COc1c2occc2cc2ccc(=O)oc12` [METHOXSALEN], which IC50 is on record?
A: Its IC50 is 54 µM.

Q: How did the IC50 turn out when `CC(C)(O)[C@@H]1Cc2cc3ccc(=O)oc3cc2O1` [MARMESIN] was run?
A: The IC50 was 67 µM.

Q: `CC(C)=CC(=O)O[C@H]1Cc2cc3ccc(=O)oc3cc2OC1(C)C` [DECURSIN] was tested. Which IC50 did it give?
A: Its IC50 is 390 µM.
